# Data published in ChEMBL document CHEMBL4350952, “Evolution of PI3Kγ and δ Inhibitors for Inflammatory and Autoimmune Diseases” (J Med Chem, 2019).
# Key:
# [1] = system: Raji; assay: Cytotoxicity against in human Raji cells; assay type: functional, cell-based
# [2] = target: T1, PI3-kinase p110-delta/p85-alpha (Homo sapiens, UniProt O00329); assay: Inhibition of N-terminal His6-tagged recombinant full length human p110delta/untagged recombinant full length human p85alpha expressed in baculovirus infected Sf21 insect cells after 20 mins by alphascreen assay
# T1 sequence (P27986 whole entry, one chain of several): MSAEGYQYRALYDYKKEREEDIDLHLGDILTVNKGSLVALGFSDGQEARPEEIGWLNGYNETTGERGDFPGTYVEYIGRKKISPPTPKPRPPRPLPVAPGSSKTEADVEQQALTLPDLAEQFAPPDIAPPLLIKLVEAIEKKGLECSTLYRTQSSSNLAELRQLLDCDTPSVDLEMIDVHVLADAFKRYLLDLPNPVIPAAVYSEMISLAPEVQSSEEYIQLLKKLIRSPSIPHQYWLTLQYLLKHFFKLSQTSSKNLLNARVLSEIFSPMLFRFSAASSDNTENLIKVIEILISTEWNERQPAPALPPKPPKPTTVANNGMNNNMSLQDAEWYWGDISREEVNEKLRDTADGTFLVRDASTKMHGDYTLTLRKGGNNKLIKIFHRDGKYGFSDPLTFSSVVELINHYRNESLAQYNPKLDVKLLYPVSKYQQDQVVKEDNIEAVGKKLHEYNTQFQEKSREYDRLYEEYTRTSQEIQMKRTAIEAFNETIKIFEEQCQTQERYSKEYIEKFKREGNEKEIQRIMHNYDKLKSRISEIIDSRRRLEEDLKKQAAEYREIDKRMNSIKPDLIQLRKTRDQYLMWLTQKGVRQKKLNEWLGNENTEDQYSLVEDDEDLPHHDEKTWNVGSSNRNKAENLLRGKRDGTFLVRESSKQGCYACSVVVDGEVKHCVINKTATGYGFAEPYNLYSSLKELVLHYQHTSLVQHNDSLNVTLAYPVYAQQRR
# [3] = Cytotoxicity against human SUDHL cells; assay type: functional, cell-based
# [4] = species on record: Homo sapiens; assay: Selectivity ratio of IC50 for N-terminal His6-tagged recombiant human full length p120gamma IC50 for N-terminal His6-tagged recombinant full length human p110delta/untagged recombinant full length human p85alpha
# [5] = target: T1, PI3-kinase p110-delta/p85-alpha; assay: Inhibition of N-terminal His6-tagged recombinant full length human p110delta/untagged recombinant full length human p85alpha expressed in baculovirus infected Sf21 insect cells using PIP2 as substrate after 60 mins by HTRF assay
# [6] = target: T1, PI3-kinase p110-delta/p85-alpha; assay: Inhibition of N-terminal His6-tagged recombinant full length human p110delta/untagged recombinant full length human p85alpha expressed in baculovirus infected Sf21 insect cells after 60 mins by ADP-Glo assay
# [7] = target: T2, Phosphatidylinositol 4,5-bisphosphate 3-kinase catalytic subunit delta isoform (Homo sapiens, UniProt O00329)
# T2 sequence (O00329 whole entry): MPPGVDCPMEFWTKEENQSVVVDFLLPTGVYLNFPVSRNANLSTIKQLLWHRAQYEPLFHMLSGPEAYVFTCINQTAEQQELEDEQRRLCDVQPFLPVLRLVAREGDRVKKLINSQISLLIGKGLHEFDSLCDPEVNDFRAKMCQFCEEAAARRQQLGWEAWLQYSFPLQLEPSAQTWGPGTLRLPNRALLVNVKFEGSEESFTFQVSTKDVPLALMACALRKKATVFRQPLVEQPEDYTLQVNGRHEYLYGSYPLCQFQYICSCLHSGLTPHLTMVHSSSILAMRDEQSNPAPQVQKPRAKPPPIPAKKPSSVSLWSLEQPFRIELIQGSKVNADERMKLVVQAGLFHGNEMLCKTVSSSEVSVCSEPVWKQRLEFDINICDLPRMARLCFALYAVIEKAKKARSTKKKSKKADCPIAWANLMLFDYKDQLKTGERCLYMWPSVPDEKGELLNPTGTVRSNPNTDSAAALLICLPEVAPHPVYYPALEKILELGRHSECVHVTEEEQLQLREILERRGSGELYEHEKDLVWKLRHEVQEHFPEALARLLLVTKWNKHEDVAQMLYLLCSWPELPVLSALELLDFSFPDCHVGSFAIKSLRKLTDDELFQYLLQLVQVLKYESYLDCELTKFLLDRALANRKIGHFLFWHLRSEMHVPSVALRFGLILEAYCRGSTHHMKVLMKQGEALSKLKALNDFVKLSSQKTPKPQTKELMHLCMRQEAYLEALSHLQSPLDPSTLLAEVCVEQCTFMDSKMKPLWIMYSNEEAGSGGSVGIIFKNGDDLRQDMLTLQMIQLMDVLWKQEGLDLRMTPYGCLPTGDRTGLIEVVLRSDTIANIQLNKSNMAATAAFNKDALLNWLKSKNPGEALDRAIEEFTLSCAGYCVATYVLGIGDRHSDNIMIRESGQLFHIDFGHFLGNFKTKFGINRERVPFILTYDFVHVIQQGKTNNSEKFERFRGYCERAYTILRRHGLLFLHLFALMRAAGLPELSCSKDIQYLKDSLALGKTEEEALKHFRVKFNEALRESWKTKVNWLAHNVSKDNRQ
# Description: Inhibition of PI3Kdelta (unknown origin) preincubated for 30 mins followed by insulin stimulation for 5 mins by Western blot analysis
# [8] = species on record: Homo sapiens; assay: Selectivity ratio of IC50 for PI3Kalpha in human SUDHL6 cells to IC50 for PI3Kdelta in human SUDHL6 cells; assay type: cell-based
# [9] = target: T3, Phosphatidylinositol 4,5-bisphosphate 3-kinase catalytic subunit gamma isoform (Homo sapiens, UniProt P48736); assay: Inhibition of PI3Kgamma in human SUDHL6 cells; assay type: cell-based
# T3 sequence (P48736 whole entry, canonical isoform): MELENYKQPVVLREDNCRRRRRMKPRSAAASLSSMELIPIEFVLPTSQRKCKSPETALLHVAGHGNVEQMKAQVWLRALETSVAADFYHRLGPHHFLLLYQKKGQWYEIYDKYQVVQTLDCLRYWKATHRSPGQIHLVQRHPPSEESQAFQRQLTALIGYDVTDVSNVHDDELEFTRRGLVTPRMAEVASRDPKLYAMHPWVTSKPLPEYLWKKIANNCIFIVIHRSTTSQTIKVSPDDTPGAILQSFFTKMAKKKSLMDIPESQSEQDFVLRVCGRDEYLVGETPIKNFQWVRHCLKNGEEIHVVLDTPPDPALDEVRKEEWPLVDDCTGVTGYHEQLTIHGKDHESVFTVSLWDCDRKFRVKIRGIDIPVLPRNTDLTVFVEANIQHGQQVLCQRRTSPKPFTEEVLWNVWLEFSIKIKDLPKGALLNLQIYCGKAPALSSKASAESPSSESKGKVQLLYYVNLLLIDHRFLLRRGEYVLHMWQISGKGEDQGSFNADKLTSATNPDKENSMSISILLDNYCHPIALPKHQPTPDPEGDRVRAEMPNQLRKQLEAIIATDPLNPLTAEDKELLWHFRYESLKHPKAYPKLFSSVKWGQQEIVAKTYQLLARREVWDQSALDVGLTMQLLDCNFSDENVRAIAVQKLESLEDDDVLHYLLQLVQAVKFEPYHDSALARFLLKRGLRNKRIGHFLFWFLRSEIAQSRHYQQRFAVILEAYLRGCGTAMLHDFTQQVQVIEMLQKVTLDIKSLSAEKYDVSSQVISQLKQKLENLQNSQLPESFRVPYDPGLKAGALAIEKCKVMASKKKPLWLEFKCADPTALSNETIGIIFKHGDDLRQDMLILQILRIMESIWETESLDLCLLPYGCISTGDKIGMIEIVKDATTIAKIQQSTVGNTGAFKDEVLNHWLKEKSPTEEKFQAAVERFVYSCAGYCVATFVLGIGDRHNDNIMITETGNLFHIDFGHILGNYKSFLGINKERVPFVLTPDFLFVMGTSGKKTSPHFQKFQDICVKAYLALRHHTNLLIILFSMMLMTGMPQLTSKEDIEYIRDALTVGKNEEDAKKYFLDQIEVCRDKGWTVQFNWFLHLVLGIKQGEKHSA
# [10] = system: SU-DHL-6; assay: Cytotoxicity against in human SUDHL6 cells; assay type: functional, cell-based
# [11] = species on record: Homo sapiens; assay: Selectivity ratio of IC50 for PI3Kbeta in human SUDHL6 cells to IC50 for PI3Kdelta in human SUDHL6 cells; assay type: cell-based
# [12] = species on record: Homo sapiens; assay: Selectivity ratio of IC50 for N-terminal His-tagged recombinant human full length p110 beta/untagged recombinant full length human p85alpha IC50 forN-terminal His6-tagged recombinant full length human p110delta/untagged recombinant full length human p85alpha
# [13] = target: T1, PI3-kinase p110-delta/p85-alpha; assay: Inhibition of N-terminal His6-tagged recombinant full length human p110delta/untagged recombinant full length human p85alpha expressed in baculovirus infected Sf21 insect cells after 80 mins by fluorescence polarization assay
# [14] = target: T3, Phosphatidylinositol 4,5-bisphosphate 3-kinase catalytic subunit gamma isoform; assay: Inhibition of recombinant N-terminal His-tagged full length human PI3Kgamma expressed in baculovirus expression system after 80 mins by fluorescence polarization assay
# [15] = species on record: Homo sapiens; assay: Selectivity ratio of IC50 for His-tagged recombiant human full length p110 alpha/p85 alpha IC50 for N-terminal His6-tagged recombinant full length human p110delta/untagged recombinant full length human p85alpha
# [16] = system: Pfeiffer; assay: Cytotoxicity against human Pfeiffer cells; assay type: functional, cell-based
# [17] = target: T3, Phosphatidylinositol 4,5-bisphosphate 3-kinase catalytic subunit gamma isoform; assay: Inhibition of PI3Kgamma (unknown origin)
# [18] = Cytotoxicity against human basophil cells after 24 hrs by MTT assay; assay type: cell-based
# [19] = target: T3, Phosphatidylinositol 4,5-bisphosphate 3-kinase catalytic subunit gamma isoform; assay: Inhibition of GST-tagged PI3Kgamma (unknown origin) using PIP2 as substrate preincubated for 2 hrs followed by ATP addition measured after 30 mins by TR-FRET assay
# [20] = Cytotoxicity against basophil derived from B-cell malignant patient by cell-titer aqueous one solution cell proliferation assay; assay type: functional; settings: Homo sapiens
# [21] = target: Casein kinase I isoform epsilon (Homo sapiens) (UniProt P49674); assay: Inhibition of casein kinase 1 epsilon (unknown origin) at 1 uM relative to control
# Sequence of Casein kinase I isoform epsilon (Homo sapiens) (P49674 whole entry, looked up, canonical isoform): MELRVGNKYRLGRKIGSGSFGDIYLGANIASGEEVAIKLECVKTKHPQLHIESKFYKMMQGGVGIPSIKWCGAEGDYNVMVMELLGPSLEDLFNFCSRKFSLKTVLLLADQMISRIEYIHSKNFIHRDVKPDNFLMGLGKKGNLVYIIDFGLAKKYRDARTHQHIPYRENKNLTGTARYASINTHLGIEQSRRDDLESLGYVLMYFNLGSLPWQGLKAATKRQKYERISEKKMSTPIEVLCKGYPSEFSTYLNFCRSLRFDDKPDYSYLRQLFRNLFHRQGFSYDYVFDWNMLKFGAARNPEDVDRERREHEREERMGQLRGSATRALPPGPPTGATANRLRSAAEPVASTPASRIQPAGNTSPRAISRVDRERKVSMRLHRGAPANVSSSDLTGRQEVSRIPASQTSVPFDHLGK
# [22] = target: T3, Phosphatidylinositol 4,5-bisphosphate 3-kinase catalytic subunit gamma isoform; assay: Inhibition of PI3Kgamma (unknown origin) using PIP2 as substrate preincubated for 10 mins followed by ATP addition measured after 30 mins by HTRF assay
# [23] = target: T2, Phosphatidylinositol 4,5-bisphosphate 3-kinase catalytic subunit delta isoform; assay: Inhibition of PI3Kdelta (unknown origin)
# [24] = target: T2, Phosphatidylinositol 4,5-bisphosphate 3-kinase catalytic subunit delta isoform; assay: Inhibition of PI3Kdelta in human SU-DHL6 cells; assay type: cell-based
# [25] = system: SU-DHL-6; assay: Cytotoxicity against human SU-DHL6 cells; assay type: functional, cell-based
# [26] = target: Serine/threonine-protein kinase SIK1 (Homo sapiens) (UniProt P57059); assay: Inhibition of SIK (unknown origin) at 1 uM relative to control
# Sequence of Serine/threonine-protein kinase SIK1 (Homo sapiens) (P57059 whole entry): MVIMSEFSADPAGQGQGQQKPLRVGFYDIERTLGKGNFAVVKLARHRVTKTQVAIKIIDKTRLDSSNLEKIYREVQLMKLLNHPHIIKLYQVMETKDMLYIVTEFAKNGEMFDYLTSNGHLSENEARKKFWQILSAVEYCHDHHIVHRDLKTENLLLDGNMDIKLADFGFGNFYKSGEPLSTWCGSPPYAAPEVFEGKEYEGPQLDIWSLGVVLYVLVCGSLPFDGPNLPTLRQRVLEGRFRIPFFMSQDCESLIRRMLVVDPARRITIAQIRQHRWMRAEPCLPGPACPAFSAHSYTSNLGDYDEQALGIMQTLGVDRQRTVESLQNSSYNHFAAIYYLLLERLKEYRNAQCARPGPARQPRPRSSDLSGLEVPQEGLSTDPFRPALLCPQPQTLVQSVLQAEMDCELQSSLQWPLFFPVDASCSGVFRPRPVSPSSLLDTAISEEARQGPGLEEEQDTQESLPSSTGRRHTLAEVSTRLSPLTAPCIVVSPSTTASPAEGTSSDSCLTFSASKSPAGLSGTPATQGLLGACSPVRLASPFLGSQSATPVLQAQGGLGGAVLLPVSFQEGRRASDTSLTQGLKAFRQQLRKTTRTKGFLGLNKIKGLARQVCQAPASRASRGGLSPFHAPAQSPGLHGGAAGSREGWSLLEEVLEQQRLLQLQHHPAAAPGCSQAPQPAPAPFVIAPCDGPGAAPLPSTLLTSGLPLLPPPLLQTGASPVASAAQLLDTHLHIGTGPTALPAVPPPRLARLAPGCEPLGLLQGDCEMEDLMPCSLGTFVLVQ
# [27] = target: DNA-dependent protein kinase catalytic subunit (Homo sapiens, UniProt P78527); assay: Inhibition of DNAPK (unknown origin)
# [28] = target: Phosphatidylinositol 3-kinase catalytic subunit type 3 (Homo sapiens, UniProt Q8NEB9); assay: Inhibition of Vps34 (unknown origin)
# Sequence of Phosphatidylinositol 3-kinase catalytic subunit type 3 (Q8NEB9 whole entry, canonical isoform): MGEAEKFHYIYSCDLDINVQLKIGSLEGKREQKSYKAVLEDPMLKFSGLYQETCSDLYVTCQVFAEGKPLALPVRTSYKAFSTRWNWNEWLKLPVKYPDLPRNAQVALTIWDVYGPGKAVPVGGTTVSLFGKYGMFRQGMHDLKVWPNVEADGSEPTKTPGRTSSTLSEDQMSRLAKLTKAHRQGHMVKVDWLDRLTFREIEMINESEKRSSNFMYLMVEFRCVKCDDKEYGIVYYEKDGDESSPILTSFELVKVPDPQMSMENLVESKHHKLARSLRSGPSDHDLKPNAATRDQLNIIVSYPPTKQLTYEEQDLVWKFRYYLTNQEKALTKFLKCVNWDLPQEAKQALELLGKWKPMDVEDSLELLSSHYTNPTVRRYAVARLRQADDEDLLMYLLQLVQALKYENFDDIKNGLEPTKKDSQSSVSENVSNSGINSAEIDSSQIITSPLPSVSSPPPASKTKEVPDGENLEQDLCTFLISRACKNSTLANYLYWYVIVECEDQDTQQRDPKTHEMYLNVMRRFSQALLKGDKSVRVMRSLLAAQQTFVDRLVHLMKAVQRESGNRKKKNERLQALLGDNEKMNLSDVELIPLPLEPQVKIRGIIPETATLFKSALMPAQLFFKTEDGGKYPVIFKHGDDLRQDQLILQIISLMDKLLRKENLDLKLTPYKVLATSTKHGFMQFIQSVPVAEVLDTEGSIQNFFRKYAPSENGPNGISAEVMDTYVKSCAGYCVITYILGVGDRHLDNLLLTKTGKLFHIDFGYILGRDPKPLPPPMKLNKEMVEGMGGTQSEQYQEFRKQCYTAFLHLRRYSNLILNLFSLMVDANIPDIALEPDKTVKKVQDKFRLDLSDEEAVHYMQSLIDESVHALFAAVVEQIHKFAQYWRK
# [29] = target: T2, Phosphatidylinositol 4,5-bisphosphate 3-kinase catalytic subunit delta isoform; assay: Inhibition of PI3Kdelta in human Pfeiffer cells; assay type: cell-based
# [30] = system: Jurkat; assay: Cytotoxicity against human Jurkat cells; assay type: functional, cell-based
# [31] = target: T2, Phosphatidylinositol 4,5-bisphosphate 3-kinase catalytic subunit delta isoform; assay: Inhibition of PI3Kdelta in human Neutrophil cells; assay type: cell-based
# [32] = target: T3, Phosphatidylinositol 4,5-bisphosphate 3-kinase catalytic subunit gamma isoform; assay: Inhibition of PI3Kgamma in human Neutrophil cells; assay type: cell-based
# [33] = species on record: Homo sapiens; assay: Selectivity ratio of IC50 for PI3Kalpha in human Neutrophil cells to IC50 for PI3Kdelta in human Neutrophil cells; assay type: cell-based
# [34] = system: Neutrophil; assay: Cytotoxicity against in human Neutrophil cells; assay type: cell-based
# [35] = species on record: Homo sapiens; assay: Selectivity ratio of IC50 for PI3Kbeta in human Neutrophil cells to IC50 for PI3Kdelta in human Neutrophil cells; assay type: cell-based
# [36] = system: JeKo-1; assay: Cytotoxicity against human JeKo1 cells; assay type: functional, cell-based
# [37] = system: B cell; assay: Cytotoxicity against human B cells; assay type: functional, cell-based
compound,measurement,setting,value
C[C@H](Nc1ncnc2nc[nH]c12)c1cc2cccc(Cl)c2c(=O)n1-c1ccccc1 [DUVELISIB],IC50,[1],0.36 nM
CC(=O)N1CC(N2CCOc3c(C(C)n4nc(C)c5c(N)ncnc54)cc(Cl)c(C)c3C2)C1 (stereo not given),IC50,[2],< 100 nM
same,IC50,[3],< 500 nM
Cn1c(C(=O)NCC2CC2)nc2c(N3CCC(n4c(=O)[nH]c5ccccc54)CC3)ncnc21,Ratio IC50,[4],> 13
same,IC50,[5],7.5 nM
CCn1c(-c2ccc(C(F)(F)F)nc2)nc2c(NC3CCc4nnc(C(C)C)n4C3)ncnc21 (stereo not given),IC50,[5],< 1 nM
Cc1nn(C)c(-c2ccccc2)c1Cn1nc(-c2cc(O)cc(F)c2)c2c(N)ncnc21,IC50,[6],< 1000 nM
Cc1ccn2nc([C@H](C)Nc3ncnc4[nH]cc(-c5ccc(O)c(CN6CCC(N(C)C)CC6)c5)c34)n(-c3ccccc3)c(=O)c12,IC50,[7],0.43 nM
C[C@H](Nc1ncnc2[nH]cnc12)C1=Nc2cccc(Cl)c2S(=O)(=O)N1c1ccccc1,Ratio IC50,[8],790
same,IC50,[9],34 nM
same,IC50,[10],6 nM
same,Ratio IC50,[11],170
C[C@H]1CN(c2nc(N)nc3c2S(=O)(=O)CC3)[C@@H]1c1nn2ccc(Cl)c2c(=O)n1-c1ccccc1,Ratio IC50,[12],250
same,IC50,[13],4 nM
same,IC50,[14],3 nM
same,Ratio IC50,[15],250
COc1c(C(C)Nc2ncnc(N)c2C#N)cc(Cl)c(C)c1-c1cccnc1 (stereo not given),IC50,[2],< 20 nM
same,IC50,[16],< 20 nM
CC(c1oc(=O)c2ccccc2c1C1=CCN(C)CC1)n1nc(-c2cc(O)cc(F)c2)c2c(N)ncnc21 (stereo not given),IC50,[17],> 1000 nM
C[C@H](Nc1ncnc(N)c1-c1nnn[nH]1)c1nn2cccc2c(=O)n1-c1ccccc1,IC50,[7],0.2 nM
C[C@H](Nc1ncnc2[nH]cnc12)c1nc2ccc(F)cc2c(=O)n1-c1ccccc1 [ACALISIB],IC50,[18],19 nM
same,IC50,[19],3000 nM
CCn1c(-c2cnc(C)nc2)nc2c(NC3CCc4nc(Cl)n(C5CC5)c4C3)ncnc21 (stereo not given),IC50,[5],< 1 nM
CC[C@H](Nc1ncnc2[nH]cnc12)c1nc2cccc(F)c2c(=O)n1-c1ccccc1 [IDELALISIB],IC50,[20],846 nM
Cc1csc2nc([C@H](C)Nc3ncnc4[nH]cnc34)c(-c3cccc(F)c3)c(=O)n12 [DEZAPELISIB],IC50,[20],35 nM
CC(C)Oc1ccc(-c2nn([C@@H](C)c3oc4ccc(F)cc4c(=O)c3-c3cccc(F)c3)c3ncnc(N)c23)cc1F [UMBRALISIB],inhibition,[21],> 60%
same,IC50,[22],> 120 nM
Cc1nc(NC(=O)CNC(=O)c2ccccc2)sc1-c1cnc(Cl)c(NS(=O)(=O)c2ccccc2)c1,Ratio IC50,[4],71
same,IC50,[23],0.6 nM
C[C@H](Nc1nc(N)nc(N)c1C#N)c1cn2ncc(Cl)c2nc1-c1cccc(F)c1,IC50,[24],< 20 nM
same,IC50,[25],< 20 nM
CC[C@H](Nc1ncnc(N)c1-c1nnc(C)o1)c1nc2cccc(Cl)c2c(=O)n1-c1ccccc1,IC50,[7],2 nM
C[C@H](Nc1ncnc(N)c1C#Cc1ccc(F)cn1)c1nc2c(F)ccc(F)c2c(=O)n1-c1cc(F)cc(F)c1,IC50,[7],< 100 nM
CC(c1cc2ccccn2c1-c1ccc(=O)n(CCN2CCOCC2)n1)n1nc(-c2cc(O)cc(F)c2)c2c(N)ncnc21 (stereo not given),IC50,[23],10 to 1000 nM
same,IC50,[17],< 10 nM
C[C@H](NC(=O)c1c(N)nn2cccnc12)c1cc2cccc(C#Cc3cnn(C)c3)c2c(=O)n1-c1ccccc1 [EGANELISIB],inhibition,[26],88%
same,IC50,[27],4800 nM
same,IC50,[28],40000 nM
Cc1c(Cl)cc(C(C)Nc2ncnc3nc[nH]c23)c(-c2cccc(F)c2)c1C(N)=O (stereo not given),IC50,[16],< 50 nM
same,IC50,[29],< 50 nM
CCC(=O)N1CC[C@H](Oc2ncnc3c2nc(-c2cnn(CC)c2C)n3C)C1,IC50,[5],< 1 nM
Cc1cccc2nc([C@H](C)Nc3ncnc4[nH]cc(-c5cccc(NS(C)(=O)=O)c5)c34)n(-c3ccccc3)c(=O)c12,IC50,[7],0.04 nM
C[C@H](Nc1ncnc(N)c1C#N)c1cc2ncc(Cl)n2cc1-c1ccccc1,IC50,[23],0.2 nM
same,IC50,[17],87 nM
CC(Nc1ncnc2[nH]cnc12)c1cc2ccccn2c(=O)c1-c1ccccc1 (stereo not given),IC50,[23],0.1 to 10 nM
Cc1ccc2c(c1)C(=O)N(C)c1cnc(Nc3cccc(S(=O)(=O)N4CCC(O)CC4)c3)nc1N2C,Ratio IC50,[4],3.5
same,IC50,[23],2 nM
same,IC50,[30],1400 nM
Cc1nc(N)nc(N[C@@H](C)c2nc3ccn(C)c3cc2N2CCNCC2)c1C#N,IC50,[23],0.7 nM
Cc1ncc(-c2nc3c(-c4ccc5c(c4)C4(CCCN4S(C)(=O)=O)C(=O)N5)ncnc3n2C)cn1 (stereo not given),IC50,[5],0.7 nM
[O-][n+]1cccc(-c2nc3c(Cl)cccc3cc2[C@@H](Nc2ncnc3cccnc23)C(F)(F)F)c1 [SELETALISIB],IC50,[31],12 nM
same,IC50,[32],280 nM
same,Ratio IC50,[33],300
same,IC50,[34],16 nM
same,Ratio IC50,[35],180
Cc1csc2cc(C(C)Nc3ncnc4[nH]cnc34)c(-c3ccccc3)c(=O)n12 (stereo not given),IC50,[25],36 nM
Cn1nc(-c2cnc(N)c(-c3ccc(C(N)=O)c(F)c3)n2)nc1C1(c2ccccc2)CC1,IC50,[36],120 nM
CC[C@H](Nc1ncnc2c1nc(-c1cnn(CC)c1C)n2C)C(=O)N1CCC(F)(F)CC1,IC50,[5],2.8 nM
COc1ccc(-c2nc3c(O[C@H]4CCN(C(=O)C5CCOCC5)C4)ncnc3n2C)cn1,IC50,[5],< 1 nM
CCOc1c([C@H](C)n2nc(C)c3c(N)ncnc32)cc(Cl)c(F)c1[C@@H]1CNC(=O)C1 [PARSACLISIB],IC50,[37],0.15 nM
